Source: US10214738B2, “Production of high purity chondroitinase ABC” (priority 2017, dated 2019)
“Also recorded” adds a separate entry of the source.

Assays:
[1] = molecular target: T1, chondroitinase ABC (ChABC) (Proteus vulgaris, UniProt P59807, L125P); experiment: relative enzyme inhibition assay of ChABC by selected polysaccharide (chondroitin sulfate C substrate, absorbance at 232 nm); format: biochemical; details: for Activity (apparent ChABC activity in presence of selected polysaccharide) / % rA (percentage of residual activity): 0.2% chondroitin sulfate C, 0.2% selected polysaccharide, 50 mM pH8 Tris HCl, 37° C., 20 min; for Activity (apparent ChABC activity in presence of selected polysaccharide): reference without polysaccharide 121 U/L; for % rA (percentage of residual activity): relative to assay without polysaccharide; for effect on ChABC enzyme activity (in words): equal amount of substrate (chondroitin sulfate C) and polysaccharide
Text: There are several existing methods for quantitative study of protein-small molecule interactions such as differential scanning calorimetry, quartz crystal microbalance, fluorescence anisotropy, and the like. However, these methods require complex equipment, are expensive and time consuming, requiring protein immobilization or protein labeling. In order to save time and reduce costs, semi-quantitative assessment methods can be applied, such as enzyme inhibition assays. In the present invention, the relative binding affinity is evaluated by monitoring the inhibition of ChABC by the selected polysaccharide. The stronger the observed inhibitory effect, the higher the affinity between the ChABC and the polysaccharide. A more detailed experimental setup is shown in Example 1. […] Thus, heparin was identified as the most suitable ligand among the selected screened polysaccharides for constructing the affinity column.
In the present invention, it is necessary to identify molecules that have a similar structure to the substrate of ChABC but are inert to enzymatic degradation. In order to test polysaccharides that could actually bind to the active site of ChABC, a relative enzyme inhibition assay was conducted on the selected polysaccharide:
490 μL of the substrate solution was incubated at 37° C. for at least 15 minutes containing 0.2% chondroitin sulfate C, 0.2% selected polysaccharide and 50 mM pH8 Tris HCl buffer. 10 μL of ChABC with activity of about 100 U/L was incubated at 37° C. for at least 3 minutes. After incubation, the two solutions were gently mixed. The mixture was then incubated at 37° C. for 20 minutes to perform enzymatic degradation of chondroitin sulfate. After 20 minutes, the reaction was terminated by inactivating ChABC by heating at 100° C. for 2 minutes. In addition to inactivating the mixture immediately without incubation for 20 minutes, a blank control was performed in the same manner. The absorbance of the heat inactivated solution at 232 nm was then measured and the apparent activity was calculated as shown in Equation 1. The assay in the absence of selected polysaccharide was also conducted in the same manner as a reference.
[formula] • where • Abs=Difference in absorbance • =OD232nm in sample tubes−OD232nm in blank tubes • E=Millimolar extinction coefficient of unsaturated disaccharides from Chondroitin Sulfate C=5.5 • t=Reaction time=20 min • Vt=Total volume of the assay=0.5 mL • Vs=Volume of enzyme used=0.01 mL • DF=Dilution factor • 1000=Convert U/mL to U/L
[formula] • where • % rA=percentage of residual activity • A(poly)=the activity presence of selected polysaccharide • A(ref)=the […] of the assay without the presence of selected polysaccharide

[2] = molecular target: T1, chondroitinase ABC (ChABC); experiment: incubation of ChABC alone with heparin (change in absorbance, enzymatic degradation); format: biochemical; details: ChABC incubated alone with heparin; no change in absorbance
Text: Therefore, immobilization of heparin as a ligand for affinity purification of ChABC is the most suitable choice among the selected polysaccharide derivatives.

T1 sequence (P59807 25-1021 L125P): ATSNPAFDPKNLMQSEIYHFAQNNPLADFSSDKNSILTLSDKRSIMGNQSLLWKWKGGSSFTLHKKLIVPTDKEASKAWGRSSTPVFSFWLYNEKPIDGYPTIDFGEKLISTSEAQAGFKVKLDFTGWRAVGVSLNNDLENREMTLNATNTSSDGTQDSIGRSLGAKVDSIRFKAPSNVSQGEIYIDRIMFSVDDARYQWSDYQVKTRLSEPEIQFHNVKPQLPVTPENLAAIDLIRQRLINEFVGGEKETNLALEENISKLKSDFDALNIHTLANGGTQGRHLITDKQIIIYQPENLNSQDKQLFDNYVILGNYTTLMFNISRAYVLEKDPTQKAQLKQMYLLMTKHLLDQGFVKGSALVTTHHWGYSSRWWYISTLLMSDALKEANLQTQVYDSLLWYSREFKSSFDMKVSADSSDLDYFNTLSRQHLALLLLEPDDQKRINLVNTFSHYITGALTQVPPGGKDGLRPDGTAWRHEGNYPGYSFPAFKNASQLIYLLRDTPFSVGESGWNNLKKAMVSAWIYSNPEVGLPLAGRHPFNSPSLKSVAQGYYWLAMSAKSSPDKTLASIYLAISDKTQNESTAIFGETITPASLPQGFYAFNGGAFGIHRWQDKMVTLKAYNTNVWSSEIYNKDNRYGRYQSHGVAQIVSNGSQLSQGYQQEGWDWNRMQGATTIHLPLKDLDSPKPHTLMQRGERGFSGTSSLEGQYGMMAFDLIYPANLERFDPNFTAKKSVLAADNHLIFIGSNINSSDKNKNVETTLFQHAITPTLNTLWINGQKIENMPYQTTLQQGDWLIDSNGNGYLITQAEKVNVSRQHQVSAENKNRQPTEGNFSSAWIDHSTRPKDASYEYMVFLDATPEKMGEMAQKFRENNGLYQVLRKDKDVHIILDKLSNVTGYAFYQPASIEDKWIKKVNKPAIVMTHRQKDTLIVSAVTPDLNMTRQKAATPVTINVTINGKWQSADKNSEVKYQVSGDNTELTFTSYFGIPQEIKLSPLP

Substance: Alginic acid
- Activity (apparent ChABC activity in presence of selected polysaccharide) [1]: 119 U/L
- % rA (percentage of residual activity) [1]: 98%
- effect on ChABC enzyme activity (in words) [1]: no significant effect on enzyme activity

Substance: heparin
- Activity (apparent ChABC activity in presence of selected polysaccharide) [1]: 5.1 U/L
- % rA (percentage of residual activity) [1]: 4.2%
- effect on ChABC enzyme activity (in words) [1]: almost completely inhibited ChABC activity; also recorded: strongest inhibitory effect on ChABC
- susceptibility to enzymatic degradation by ChABC [2]: not subject to the enzymatic degradation activity of ChABC

Substance: polygalacturonic acid
- Activity (apparent ChABC activity in presence of selected polysaccharide) [1]: 117 U/L
- % rA (percentage of residual activity) [1]: 97%
- effect on ChABC enzyme activity (in words) [1]: no significant effect on enzyme activity
